Experimental data from ChEMBL document CHEMBL4000220, “Optimization of spirocyclic proline tryptophan hydroxylase-1 inhibitors” (Bioorg Med Chem Lett, 2017).
Active and inactive are the calls of the source. The calls are words filed in the database; no cut-off is given here.

Key:
[1] = target: T1, Tryptophan 5-hydroxylase 1 (Homo sapiens, UniProt P17752)
T1 sequence (P17752 whole entry): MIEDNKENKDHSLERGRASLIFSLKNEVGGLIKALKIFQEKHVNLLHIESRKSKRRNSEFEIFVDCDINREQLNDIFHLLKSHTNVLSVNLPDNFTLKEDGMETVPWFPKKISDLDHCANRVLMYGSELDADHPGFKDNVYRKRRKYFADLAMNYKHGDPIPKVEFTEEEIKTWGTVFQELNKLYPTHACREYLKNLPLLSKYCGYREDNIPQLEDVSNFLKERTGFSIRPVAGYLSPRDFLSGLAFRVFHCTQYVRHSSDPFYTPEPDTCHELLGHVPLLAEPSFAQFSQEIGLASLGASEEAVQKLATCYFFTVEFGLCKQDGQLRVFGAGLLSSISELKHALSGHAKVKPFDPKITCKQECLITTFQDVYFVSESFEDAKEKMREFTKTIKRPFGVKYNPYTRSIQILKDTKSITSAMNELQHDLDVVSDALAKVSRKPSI
Description: Inhibition of TPH1 (unknown origin)

[2] = tested on: Mus musculus; assay: In vivo inhibition of TPH1 in mouse assessed as reduction in 5-HT level in intestinal mucosa at 50 mg/kg, po administered daily as single dose relative to control; format: functional
[3] = tested on: Mus musculus; assay: Drug level in mouse treated with (S)-ethyl 8-(2-amino-6-((R)-1-(5-chloro-3'-(trifluoromethyl)biphenyl-2-yl)-2,2,2-trifluoroethoxy)pyrimidin-4-yl)-2,8-diazaspiro[4.5]decane-3-carboxylate at 10 to 50 mg/kg, po administered as single dose; format: ADME, organism-based; conditions: in vivo
[4] = tested on: Mus musculus; assay: Drug level in mouse treated with (S)-ethyl 8-(2-amino-6-((R)-1-(5-chloro-3'-methylbiphenyl-2-yl)-2,2,2-trifluoroethoxy)pyrimidin-4-yl)-2,8-diazaspiro[4.5]decane-3-carboxylate at 10 to 50 mg/kg, po administered as single dose; format: ADME, organism-based; conditions: in vivo
[5] = Drug level in rat hepatocytes treated with ethyl 8-(2-amino-6-((R)-1-(4-chloro-2-(3-methyl-1H-pyrazol-1-yl)phenyl)-2,2,2-trifluoroethoxy)pyrimidin-4-yl)-2,8-diazaspiro[4.5]decane-3-carboxylate; format: ADME, cell-based, Hepatocyte
[6] = tested on: Mus musculus; assay: Drug level in mouse treated (S)-ethyl 8-(2-amino-6-((R)-1-(5-chloro-3'-fluorobiphenyl-2-yl)-2,2,2-trifluoroethoxy)pyrimidin-4-yl)-2,8-diazaspiro[4.5]decane-3-carboxylate at 10 to 50 mg/kg, po administered as single dose; format: ADME, organism-based; conditions: in vivo
[7] = tested on: Mus musculus; assay: Drug level in mouse treated with (S)-ethyl 8-(2-amino-6-((R)-1-(5-chloro-3',5'-difluorobiphenyl-2-yl)-2,2,2-trifluoroethoxy)pyrimidin-4-yl)-2,8-diazaspiro[4.5]decane-3-carboxylate at 10 to 50 mg/kg, po administered as single dose; format: ADME, organism-based; conditions: in vivo
[8] = tested on: Mus musculus; assay: Drug level in mouse treated with (S)-ethyl 8-(2-amino-6-((R)-1-(3'-tert-butyl-5-chlorobiphenyl-2-yl)-2,2,2-trifluoroethoxy)pyrimidin-4-yl)-2,8-diazaspiro[4.5]decane-3-carboxylate at 10 to 50 mg/kg, po administered as single dose; format: ADME, organism-based; conditions: in vivo

| SMILES | IC50 [1] [µM] | inhibition [2] | further results |
| --- | --- | --- | --- |
| Nc1nc(O[C@H](c2ccc(-c3ccc4c(c3)CCC(=O)N4)cc2)C(F)(F)F)cc(N2CCC3(CC2)CN[C@H](C(=O)O)C3)n1 | 0.028 | inactive | – |
| CCOC(=O)[C@@H]1CC2(CCN(c3cc(O[C@H](c4ccc(-c5ccc6nc(SC)ccc6c5)cc4)C(F)(F)F)nc(N)n3)CC2)CN1 | – | inactive | – |
| Nc1nc(O[C@H](c2ccc(-c3ccc4ncc(F)cc4c3)cc2)C(F)(F)F)cc(N2CCC3(CC2)CN[C@H](C(=O)O)C3)n1 | 0.04 | inactive | – |
| CCOC(=O)[C@@H]1CC2(CCN(c3cc(O[C@H](c4ccc(-c5ccc6c(cnn6C)c5)cc4)C(F)(F)F)nc(N)n3)CC2)CN1 | – | inactive | – |
| CN1CCc2cc(-c3ccc([C@@H](Oc4cc(N5CCC6(CC5)CN[C@H](C(=O)O)C6)nc(N)n4)C(F)(F)F)cc3)ccc2C1=O | 0.039 | inactive | – |
| Nc1nc(O[C@H](c2ccc(Cl)cc2-n2ccc(C(=O)O)n2)C(F)(F)F)cc(N2CCC3(CC2)CNC(C(=O)O)C3)n1 (some centres undefined) | – | – | Drug metabolism [5]: Metabolite_Detected |
| Nc1nc(O[C@H](c2ccc(Cl)cc2-c2ccc(S(N)(=O)=O)cc2)C(F)(F)F)cc(N2CCC3(CC2)CN[C@H](C(=O)O)C3)n1 | 1.13 | – | – |
| CCOC(=O)[C@@H]1CC2(CCN(c3cc(O[C@H](c4ccc(-c5ccc6c(c5)CCC(=O)N6)cc4)C(F)(F)F)nc(N)n3)CC2)CN1 | – | inactive | – |
| Nc1nc(O[C@H](c2ccc(-c3ccc4cnccc4c3)cc2)C(F)(F)F)cc(N2CCC3(CC2)CN[C@H](C(=O)O)C3)n1 | 0.025 | inactive | – |
| CCOC(=O)[C@@H]1CC2(CCN(c3cc(O[C@H](c4ccc(Cl)cc4)C(F)(F)F)nc(N)n3)CC2)CN1 | – | inactive | – |
| Nc1nc(O[C@H](c2ccc(Cl)cc2-n2ccc(CO)n2)C(F)(F)F)cc(N2CCC3(CC2)CNC(C(=O)O)C3)n1 (some centres undefined) | – | – | Drug metabolism [5]: Metabolite_Detected |
| Nc1nc(O[C@H](c2ccc(Cl)cc2-n2ccc(COS(=O)(=O)O)n2)C(F)(F)F)cc(N2CCC3(CC2)CNC(C(=O)O)C3)n1 (some centres undefined) | – | – | Drug metabolism [5]: Metabolite_Detected |
| Cn1ncc2cc(-c3ccc([C@@H](Oc4cc(N5CCC6(CC5)CN[C@H](C(=O)O)C6)nc(N)n4)C(F)(F)F)cc3)ccc21 | 0.03 | inactive | – |
| Nc1nc(O[C@H](c2ccc(Cl)cc2-c2cccc(N3CCCC3=O)c2)C(F)(F)F)cc(N2CCC3(CC2)CN[C@H](C(=O)O)C3)n1 | 0.077 | – | – |
| Nc1nc(O[C@H](c2ccc(Cl)cc2)C(F)(F)F)cc(N2CCC3(CC2)CN[C@H](C(=O)O)C3)n1 | 0.46 | inactive | – |
| CCOc1ccc(-c2cc(Cl)ccc2[C@@H](Oc2cc(N3CCC4(CC3)CN[C@H](C(=O)O)C4)nc(N)n2)C(F)(F)F)cc1Cl | 0.207 | – | – |
| CCOC(=O)[C@@H]1CC2(CCN(c3cc(O[C@H](c4ccc(Cl)cc4-n4ccc(C)n4)C(F)(F)F)nc(N)n3)CC2)CN1 | – | – | inhibition in vivo at 50 mg/kg [2]: 61% |

| SMILES | IC50 [1] [µM] | inhibition [2] | further results |
| --- | --- | --- | --- |
| CS(=O)(=O)c1ccc(-c2cc(Cl)ccc2[C@@H](Oc2cc(N3CCC4(CC3)CN[C@H](C(=O)O)C4)nc(N)n2)C(F)(F)F)cc1 | 0.885 | – | – |
| Nc1nc(O[C@H](c2ccc(-c3ccc4[nH]ncc4c3)cc2)C(F)(F)F)cc(N2CCC3(CC2)CN[C@H](C(=O)O)C3)n1 | 0.032 | inactive | – |
| CCOC(=O)[C@@H]1CC2(CCN(c3cc(O[C@H](c4ccc(-c5ccc(Cl)c(Cl)c5)cc4-n4ccc(C)n4)C(F)(F)F)nc(N)n3)CC2)CN1 | – | – | inhibition in vivo at 50 mg/kg [2]: 60% |
| COc1ccc(-c2ccc([C@@H](Oc3cc(N4CCC5(CC4)CN[C@H](C(=O)O)C5)nc(N)n3)C(F)(F)F)c(-n3ccc(C)n3)c2)cc1 | 0.023 | – | – |
| Cc1c2ccc(-c3ccc([C@@H](Oc4cc(N5CCC6(CC5)CN[C@H](C(=O)O)C6)nc(N)n4)C(F)(F)F)cc3)cc2nn1C | 0.037 | inactive | – |
| Cc1ccn(-c2cc(-c3ccc(C)c(C)c3)ccc2[C@@H](Oc2cc(N3CCC4(CC3)CN[C@H](C(=O)O)C4)nc(N)n2)C(F)(F)F)n1 | 0.02 | – | – |
| CCOC(=O)[C@@H]1CC2(CCN(c3cc(O[C@H](c4ccc(-c5ccc6ncc(F)cc6c5)cc4)C(F)(F)F)nc(N)n3)CC2)CN1 | – | inactive | – |
| Cc1nn(C)c2cc(-c3ccc([C@@H](Oc4cc(N5CCC6(CC5)CN[C@H](C(=O)O)C6)nc(N)n4)C(F)(F)F)cc3)ccc12 | 0.032 | inactive | – |
| CCOC(=O)[C@@H]1CC2(CCN(c3cc(O[C@H](c4ccc(-c5ccc6[nH]ncc6c5)cc4)C(F)(F)F)nc(N)n3)CC2)CN1 | – | inactive | – |
| CSc1ccc2cc(-c3ccc([C@@H](Oc4cc(N5CCC6(CC5)CN[C@H](C(=O)O)C6)nc(N)n4)C(F)(F)F)cc3)ccc2n1 | 0.026 | inactive | – |
| CCOC(=O)[C@@H]1CC2(CCN(c3cc(O[C@H](c4ccc(-c5ccc6cnccc6c5)cc4)C(F)(F)F)nc(N)n3)CC2)CN1 | – | inactive | – |
| CCOC(=O)[C@@H]1CC2(CCN(c3cc(O[C@H](c4ccc(-c5ccc6c(C)nn(C)c6c5)cc4)C(F)(F)F)nc(N)n3)CC2)CN1 | – | inactive | – |
| CCOC(=O)[C@@H]1CC2(CCN(c3cc(O[C@H](c4ccc(-c5ccc6c(C)n(C)nc6c5)cc4)C(F)(F)F)nc(N)n3)CC2)CN1 | – | inactive | – |
| CCOC(=O)[C@@H]1CC2(CCN(c3cc(O[C@H](c4ccc(-c5ccc(OC)cc5)cc4-n4ccc(C)n4)C(F)(F)F)nc(N)n3)CC2)CN1 | – | – | inhibition in vivo at 50 mg/kg [2]: 46% |
| CCOC(=O)[C@@H]1CC2(CCN(c3cc(O[C@H](c4ccc(-c5ccc6c(c5)CCN(C)C6=O)cc4)C(F)(F)F)nc(N)n3)CC2)CN1 | – | inactive | – |
| Cc1ccn(-c2cc(-c3ccc(Cl)c(Cl)c3)ccc2[C@@H](Oc2cc(N3CCC4(CC3)CN[C@H](C(=O)O)C4)nc(N)n2)C(F)(F)F)n1 | 0.022 | – | – |

Now from value to compound, other results behind:

| IC50 [1] [µM] | SMILES | inhibition [2] | further results |
| --- | --- | --- | --- |
| 0.073 | Cc1cccc(-c2cc(Cl)ccc2[C@@H](Oc2cc(N3CCC4(CC3)CN[C@H](C(=O)O)C4)nc(N)n2)C(F)(F)F)n1 | – | – |
| 0.035 | Nc1nc(O[C@H](c2ccc(Cl)cc2-c2cc(F)cc(Cl)c2)C(F)(F)F)cc(N2CCC3(CC2)CN[C@H](C(=O)O)C3)n1 | – | – |
| 0.021 | Nc1nc(O[C@H](c2ccc(Cl)cc2-c2cccc(C(F)(F)F)c2)C(F)(F)F)cc(N2CCC3(CC2)CN[C@H](C(=O)O)C3)n1 | – | Drug metabolism [3]: Metabolite_Detected |
| 0.03 | Nc1nc(O[C@H](c2ccc(Cl)cc2-c2cccc(Cl)c2)C(F)(F)F)cc(N2CCC3(CC2)CN[C@H](C(=O)O)C3)n1 | – | – |
| 0.053 | CN(C)S(=O)(=O)c1cccc(-c2cc(Cl)ccc2[C@@H](Oc2cc(N3CCC4(CC3)CN[C@H](C(=O)O)C4)nc(N)n2)C(F)(F)F)c1 | – | – |
| 0.026 | Cc1cccc(-c2cc(Cl)ccc2[C@@H](Oc2cc(N3CCC4(CC3)CN[C@H](C(=O)O)C4)nc(N)n2)C(F)(F)F)c1 | – | Drug metabolism [4]: Metabolite_Detected |
| 0.035 | Nc1nc(O[C@H](c2ccc(Cl)cc2-c2ccc(F)c(F)c2)C(F)(F)F)cc(N2CCC3(CC2)CN[C@H](C(=O)O)C3)n1 | – | – |
| 0.032 | Nc1nc(O[C@H](c2ccc(Cl)cc2-c2cccc(F)c2)C(F)(F)F)cc(N2CCC3(CC2)CN[C@H](C(=O)O)C3)n1 | – | Drug metabolism [6]: Metabolite_Detected |
| 0.022 | Nc1nc(O[C@H](c2ccc(Cl)cc2-c2cc(F)cc(F)c2)C(F)(F)F)cc(N2CCC3(CC2)CN[C@H](C(=O)O)C3)n1 | – | Drug metabolism [7]: Metabolite_Detected |
| 0.051 | CS(=O)(=O)Nc1cccc(-c2cc(Cl)ccc2[C@@H](Oc2cc(N3CCC4(CC3)CN[C@H](C(=O)O)C4)nc(N)n2)C(F)(F)F)c1 | – | – |
| 0.04 | NC(=O)c1cccc(-c2cc(Cl)ccc2[C@@H](Oc2cc(N3CCC4(CC3)CN[C@H](C(=O)O)C4)nc(N)n2)C(F)(F)F)c1 | – | – |
| 0.053 | Nc1nc(O[C@H](c2ccc(Cl)cc2-c2ccc(Cl)cc2)C(F)(F)F)cc(N2CCC3(CC2)CN[C@H](C(=O)O)C3)n1 | – | – |
| 0.023 | CC(C)(C)c1cccc(-c2cc(Cl)ccc2[C@@H](Oc2cc(N3CCC4(CC3)CN[C@H](C(=O)O)C4)nc(N)n2)C(F)(F)F)c1 | – | Drug metabolism [8]: Metabolite_Detected |
| 0.03 | N#Cc1cccc(-c2cc(Cl)ccc2[C@@H](Oc2cc(N3CCC4(CC3)CN[C@H](C(=O)O)C4)nc(N)n2)C(F)(F)F)c1 | – | – |
| 0.062 | Cc1cc(-c2cc(Cl)ccc2[C@@H](Oc2cc(N3CCC4(CC3)CN[C@H](C(=O)O)C4)nc(N)n2)C(F)(F)F)ccc1Cl | – | – |
| 0.065 | Nc1nc(O[C@H](c2ccc(Cl)cc2-c2cccnc2)C(F)(F)F)cc(N2CCC3(CC2)CN[C@H](C(=O)O)C3)n1 | – | – |
